What was measured:
[1] = molecular target: T1, VHL (Homo sapiens, UniProt P40337); assay: VHL nanoBRET (+Digitonin); format: cell-based
T1 construct: expressed in transfected cells

[2] = molecular target: T2, NanoLuc VHL fusion protein stably expressed in HEK 293 cells (Homo sapiens, UniProt P40337); assay: VHL HEK-293 BRET Assay (VHL NanoBRET Target Engagement Assay); format: cell-based; conditions: for IC50: HEK293 cells, nanoBRET, geometric mean where more than one measurement, read-out: VHL binding in cells (HEK293 nanoBRET); for Ratio cell permeability shift: ratio of nanoBRET in cells to nanoBRET +Digitonin
T2 construct: expressed in transfected cells
Method: The VHL NanoBRET™ Target Engagement Assay analyzes the apparent affinity of test compounds for VHL in cells by competitive displacement of a VHL NanoBRET™ tracer reversibly bound to a NanoLuc® VHL fusion protein stably expressed in the cells.
Test compounds were transferred to the assay plate (384 Well White Non-Binding Corning Assay Plates (Corning-3574)) using an Echo 555 Liquid Handler (Labcyte) in 2.5 nL increments and, as appropriate, intermediate stock concentrations of compounds, in order to prepare a titration series. 50 nL of control compound (10 mM; parental unlabeled VHL antagonist; see structure below) and 50 nL of DMSO (negative control) were dispensed into the appropriate control wells. DMSO was backfilled to a final volume of 50 nL as required. 50 nl per well of 1 mM VHL NanoBRET™ Tracer in DMSO (NanoBRET™ Tracer-PEG2-590 (see structure below)) was transferred into each well using an Echo 555 (ultimately yielding a final concentration of 1 uM). HEK 293 RT VHL-NanoLuc® stable cells were cultured in DMEM High Glucose with Pyruvate, 10% fetal bovine serum, 2 mg/mL of Geneticin Selective Antibiotic (50 mg/ml) and 2 mM HEPES (1 M). Cells were seeded in Opti-MEM (Life Technologies-11058-021), 1.7×10^5 cells/mL, 40 μl per well into the assay plate, centrifuged at 500 rpm for 30 seconds and incubated for 2 hours. Max Signal control wells consisted of DMSO only treated wells. Minimum Signal control wells contained of 10 uM parental unlabeled VHL antagonist (control compound—see structure below). 3× Complete Substrate plus Inhibitor Solution was prepared in Opti-MEM (consists of a 1:166 dilution of NanoBRET™ Nano-Glo® Substrate plus a 1:500 dilution of Extracellular NanoLuc® Inhibitor in Opti-MEM), and 20 ul was dispensed into each well of the 384-well plate and centrifuged at 1000 rpm for 1 minute, then incubated for 2 minutes at room temperature. Background Signal control wells were prepared without tracer for background correction steps.
Plates were read using a PerkinElmer Envision Reader (model 2104-0020) equipped with Luminescence option (Mirror: BRET2 Enh (PE Barcode 659), Emission Filter: Omega 610LP (Barcode 504), 2nd Emission Filter: Umbelliferone 460 (Barcode 207), Measurement height: 6.5 mm, Measurement time: 1 s). The raw BRET ratio values were calculated by dividing the acceptor emission value (610 nm) by the donor emission value (460 nm) for each sample. To correct for background, the BRET ratio in the absence of tracer (average of no-tracer control samples) was subtracted from the BRET ratio of each sample. Raw BRET units were converted to milliBRET units (mBU) by multiplying each raw BRET value by 1,000. The normalized NanoBRET™ signal was calculated relative to the Max Signal control wells (DMSO treated control wells) and the Minimum Signal control wells. Percentage inhibition was calculated relative to the Minimum Signal control and Maximum Signal control wells. IC50 values were derived by four parameter curve fitting using the Robust method.

T2 sequence (P40337 whole entry, the tested form may be a part): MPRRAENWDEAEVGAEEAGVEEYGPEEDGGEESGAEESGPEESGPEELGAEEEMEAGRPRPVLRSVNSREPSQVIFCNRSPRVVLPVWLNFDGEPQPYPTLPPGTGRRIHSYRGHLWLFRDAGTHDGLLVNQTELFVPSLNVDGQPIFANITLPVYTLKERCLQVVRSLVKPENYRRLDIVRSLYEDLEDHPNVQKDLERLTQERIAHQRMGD
T2 sequence (Q15370 whole entry partner, the tested form may be a part): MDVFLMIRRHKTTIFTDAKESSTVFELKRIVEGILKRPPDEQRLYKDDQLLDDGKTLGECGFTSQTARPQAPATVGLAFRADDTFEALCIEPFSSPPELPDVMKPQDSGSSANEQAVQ
T2 sequence (Q15369 whole entry partner, the tested form may be a part): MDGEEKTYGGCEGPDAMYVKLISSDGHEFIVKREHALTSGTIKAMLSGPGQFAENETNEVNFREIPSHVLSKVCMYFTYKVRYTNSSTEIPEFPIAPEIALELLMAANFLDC
T1 sequence (P40337 whole entry): as the sequence (P40337 whole entry, the tested form may be a part) above
T1 sequence (Q15370 whole entry partner): as the sequence (Q15370 whole entry partner, the tested form may be a part) above
T1 sequence (Q15369 whole entry partner): as the sequence (Q15369 whole entry partner, the tested form may be a part) above

For CNC(=O)[C@@H]1C[C@@H](OC(C)=O)CN1C(=O)[C@@H](n1cc(C2CC2)nn1)C(C)(C)C [Final product from Example S12, (3R,5S)-1-((S)-2-(4-cyclopropyl-1H-1,2,3-triazol-1-yl)-3,3-dimethylbutanoyl)-5-(methylcarbamoyl)pyrrolidin-3-yl Acetate], which EC50 [1] is on record?
The EC50 was 92800 nM.

What about the IC50 [2] of the same compound?
The IC50 was 62800 nM.

And the “Ratio cell permeability shift” value [2]?
Its value is 0.68.

What does the source list for CC(C)(C)[C@@H](C(=O)N1C[C@H](O)C[C@H]1C(=O)NC1CC1)n1cc(C2CC2)nn1 [Final product from Example S13, (2S,4R)—N-cyclopropyl-1-((S)-2-(4-cyclopropyl-1H-1,2,3-triazol-1-yl)-3,3-dimethylbutanoyl)-4-hydroxypyrrolidine-2-carboxamide]?
EC50 [1]: 6270 nM; IC50 [2]: 9680 nM; Ratio cell permeability shift [2]: 1.54

CNC(=O)[C@@H]1C[C@@H](O)CN1C(=O)[C@H](C1CCN(S(C)(=O)=O)CC1)n1cc(C2CC2)nn1 [Final product from Example S10, (2S,4R)-1-((S)-2-(4-cyclopropyl-1H-1,2,3-triazol-1-yl)-2-(1-(methylsulfonyl)piperidin-4-yl)acetyl)-4-hydroxy-N-methylpyrrolidine-2-carboxamide] was tested. Which EC50 [1] did it give?
The EC50 was 2070 nM.

And the IC50 [2]?
Its IC50 is 10000 nM.

And the “Ratio cell permeability shift” value [2]?
The value was 4.83.

With CNC(=O)[C@@H]1C[C@@H](O)CN1C(=O)[C@H](C1CCNCC1)n1cc(C2CC2)nn1 [Final product from Example S7, (2S,4R)-1-((S)-2-(4-cyclopropyl-1H-1,2,3-triazol-1-yl)-2-(piperidin-4-yl)acetyl)-4-hydroxy-N-methylpyrrolidine-2-carboxamide] as the compound, how does the EC50 [1] read?
The EC50 was 8960 nM.

And the “Ratio cell permeability shift” value [2]?
Its value is over 10.00.

Which results are given for CC(C)NC(=O)[C@@H]1C[C@@H](O)CN1C(=O)[C@@H](n1cc(C2CC2)nn1)C(C)(C)C [Final product from Example S15, (2S,4R)-1-((S)-2-(4-cyclopropyl-1H-1,2,3-triazol-1-yl)-3,3-dimethylbutanoyl)-4-hydroxy-N-isopropylpyrrolidine-2-carboxamide]?
EC50 [1]: 5990 nM; IC50 [2]: 9090 nM; Ratio cell permeability shift [2]: 1.52

For CNC(=O)[C@@H]1C[C@@H](O)CN1C(=O)[C@H](C(C)C)n1cc(C2(C)CC2)nn1 [Final product from Example S20, (2S,4R)-4-hydroxy-N-methyl-1-((S)-3-methyl-2-(4-(1-methylcyclopropyl)-1H-1,2,3-triazol-1-yl)butanoyl)pyrrolidine-2-carboxamide], which EC50 [1] is on record?
The EC50 was 1240 nM.

And the IC50 [2]?
Its IC50 is 2120 nM.

What about the “Ratio cell permeability shift” value [2] of the same compound?
The value was 1.71.

What does the source list for CNC(=O)[C@@H]1C[C@@H](O)CN1C(=O)[C@H](C(C)C)n1cc(-c2cccs2)nn1 [Final product from Example S28, (2S, 4R)-4-hydroxy-N-methyl-1-((S)-3-methyl-2-(4-(thiophen-2-yl)-1H-1,2,3-triazol-1-yl)butanoyl)pyrrolidine-2-carboxamide]?
EC50 [1]: 790 nM; IC50 [2]: 590 nM; Ratio cell permeability shift [2]: 0.75

With CNC(=O)[C@@H]1C[C@@H](O)CN1C(=O)[C@H](C(C)C)n1cc(C2CCCC2)nn1 [Final product from Example S22, (2S, 4R)-1-[(2S)-2-(4-cyclopentyltriazol-1-yl)-3-methyl-butanoyl]-4-hydroxy-N-methyl-pyrrolidine-2-carboxamide] as the compound, how does the EC50 [1] read?
Its EC50 is 2780 nM.

What about the IC50 [2] of the same compound?
Its IC50 is 3210 nM.

What about the “Ratio cell permeability shift” value [2] of the same compound?
Its value is 1.15.

With CNC(=O)[C@@H]1C[C@@H](O)CN1C(=O)[C@@H](n1ccnn1)C(C)(C)C [Final product from Example S4, (2S,4R)-1-((S)-3,3-dimethyl-2-(1H-1,2,3-triazol-1-yl)butanoyl)-4-hydroxy-N-methylpyrrolidine-2-carboxamide] as the compound, how does the EC50 [1] read?
The EC50 was 12100 nM.

What about the IC50 [2] of the same compound?
Its IC50 is 15200 nM.

What about the “Ratio cell permeability shift” value [2] of the same compound?
Its value is 1.26.

How did the EC50 [1] turn out when CNC(=O)[C@@H]1C[C@@H](O)CN1C(=O)[C@H](C1CCN(C)CC1)n1cc(C2CC2)nn1 [Final product from Example S8, (2S,4R)-1-((S)-2-(4-cyclopropyl-1H-1,2,3-triazol-1-yl)-2-(1-methylpiperidin-4-yl)acetyl)-4-hydroxy-N-methylpyrrolidine-2-carboxamide] was run?
The EC50 was 10800 nM.

And the “Ratio cell permeability shift” value [2]?
Its value is over 10.00.

With CNC(=O)[C@@H]1C[C@@H](O)CN1C(=O)C(=C(C)C)n1cc(C2CC2)nn1 [Final product from Example S27, (2S, 4R)-1-[2-(4-cyclopropyltriazol-1-yl)-3-methyl-but-2-enoyl]-4-hydroxy-N-methyl-pyrrolidine-2-carboxamide] as the compound, how does the EC50 [1] read?
The EC50 was 4940 nM.

What about the “Ratio cell permeability shift” value [2] of the same compound?
The value was 0.96.

Which EC50 [1] does the source give for CNC(=O)[C@@H]1C[C@@H](O)CN1C(=O)[C@H](C(C)C)n1cc(-c2cnco2)nn1 [Final product from Example S32, (2S, 4R)-4-hydroxy-N-methyl-1-[(2S)-3-methyl-2-(4-oxazol-5-yltriazol-1-yl)butanoyl]pyrrolidine-2-carboxamide] here?
The EC50 was 2120 nM.

And the IC50 [2]?
Its IC50 is 3200 nM.

What about the “Ratio cell permeability shift” value [2] of the same compound?
Its value is 1.51.

Which results are given for CC(C)(C)[C@@H](C(=O)N1C[C@H](O)C[C@H]1C(=O)NCCF)n1cc(C2CC2)nn1 [Final product from Example S16, (2S,4R)-1-((S)-2-(4-cyclopropyl-1H-1,2,3-triazol-1-yl)-3,3-dimethylbutanoyl)-N-(2-fluoroethyl)-4-hydroxypyrrolidine-2-carboxamide]?
EC50 [1]: 3560 nM; IC50 [2]: 2430 nM; Ratio cell permeability shift [2]: 0.68

CNC(=O)[C@@H]1C[C@@H](O)CN1C(=O)[C@H](C(C)C)n1cc(-c2ccccc2)nn1 [Final product from Example S34, (2S,4R)-4-hydroxy-N-methyl-1-((S)-3-methyl-2-(4-phenyl-1H-1,2,3-triazol-1-yl)butanoyl)pyrrolidine-2-carboxamide] was tested. Which EC50 [1] did it give?
Its EC50 is 1270 nM.

What about the IC50 [2] of the same compound?
The IC50 was 1380 nM.

And the “Ratio cell permeability shift” value [2]?
Its value is 1.09.

What does the source list for CNC(=O)[C@@H]1C[C@@H](O)CN1C(=O)[C@H](C(C)C)n1nnc2cc(F)c(F)cc21 (single isomer, unassigned) [Final product from Example S26]?
EC50 [1]: 1980 nM; IC50 [2]: 1020 nM; Ratio cell permeability shift [2]: 0.51

For CNC(=O)[C@@H]1C[C@@H](O)CN1C(=O)[C@H](C(C)C)n1cc(C2CC2)nn1 (single isomer, unassigned) [Isomer A from Example S11], which EC50 [1] is on record?
Its EC50 is 3100 nM.

And the IC50 [2]?
Its IC50 is 3000 nM.

What about the “Ratio cell permeability shift” value [2] of the same compound?
Its value is 0.97.

What does the source list for CNC(=O)[C@@H]1C[C@@H](O)CN1C(=O)[C@H](C(C)C)n1cc(-c2nccs2)nn1 (mixture of isomers) [Final product from Example S31, (2S, 4R)-4-hydroxy-N-methyl-1-[rac-(2S)-3-methyl-2-(4-thiazol-2-yltriazol-1-yl)butanoyl]pyrrolidine-2-carboxamide]?
EC50 [1]: 1200 nM; IC50 [2]: 1100 nM; Ratio cell permeability shift [2]: 0.92

Which EC50 [1] does the source give for CNC(=O)[C@@H]1C[C@@H](O)CN1C(=O)[C@H](C(C)C)n1cc(-c2cncnc2)nn1 [Final product from Example S39, (2S,4R)-4-hydroxy-N-methyl-1-((S)-3-methyl-2-(4-(pyrimidin-5-yl)-1H-1,2,3-triazol-1-yl)butanoyl)pyrrolidine-2-carboxamide] here?
The EC50 was 720 nM.

And the IC50 [2]?
Its IC50 is 1690 nM.

And the “Ratio cell permeability shift” value [2]?
Its value is 2.35.

For CNC(=O)[C@@H]1C[C@@H](O)CN1C(=O)[C@H](C(C)C)n1cc(-c2ncco2)nn1 (single isomer, unassigned) [Final product from Example S30], which EC50 [1] is on record?
The EC50 was 970 nM.

What about the IC50 [2] of the same compound?
Its IC50 is 920 nM.

And the “Ratio cell permeability shift” value [2]?
Its value is 0.95.

Reference: patent publication US12643884B2, “1-(2-(4-cyclopropyl-1H-1,2,3-triazol-1-yl)acetyl)-4-hydroxypyrrolidine-2-carboxa|mide derivatives as VHL inhibitors for the treatment of anemia” (Genentech, Inc., priority 2020, dated 2026)
